In patent US6900239B2, “Tumor chemopotentiation using isocoumarin derivatives” (ILWZ ILEX Products, Inc., priority 2000, dated 2005):

What was measured:
[1] = test system: colon 26 adenocarcinoma; assay: Combination with cyclophosphamide, survival; assay type: in vivo, BALB/c mice
Protocol: To determine the effect on tumor growth of NM-3 treatment combined with simultaneous cyclophosphamide treatment, colon 26 adenocarcinoma cells (5×10^4 cells per mouse) were subcutaneously transplanted into BALB/c mice (female, 7 weeks old) in the inguinal area. NM-3 was continuously orally administered from day 1 to day 72 after the transplantation except on day 14 when cyclophosphamide was dosed.

[2] = test system: IMC carcinoma; assay: Combination with cyclophosphamide, tumor weight; assay type: in vivo, CDF1 mice; conditions: for Solid Weight mg ± S.D.: day 42
Protocol: To determine the effect on IMC carcinoma growth of NM-3 treatment combined with simultaneous cyclophosphamide treatment, IMC carcinoma cells (1×10^6 cells per mouse) were subcutaneously transplanted into CDF1 mice (female, 10 weeks old) in the inguinal area. NM-3 which was dissolved using 5% DMSO+Tween80, was continuously orally administered from day 1 to day 41 after transplantation except on day 14, when cyclophosphamide (300 mg/kg) was injected intravenously.

[3] = test system: Seg-1 tumors; assay: NM-3 and ionizing radiation, tumor growth; assay type: in vivo, C57BL/6 nude mice
Protocol: The effects of NM-3 and IR on tumor growth were assessed in Lewis Lung Carcinoma (LLC), Seg-1, and SQ-20B tumors implanted in C57BL/6 nude mice.
Seg-1 tumors in the control group and the NM-3-treated group grew to 6.30±0.42 and 6.74±0.62 times original volume by day 15 at which time the animals were sacrificed due to tumor burden. Tumors in the IR (4 doses of 5 Gy) group initially regressed (0.64±0.03 times original volume, day 7) and then regrew (1.83±0.11, day 15). […] (FIG. 8B).

[4] = test system: Human umbilical vein endothelial cells (HUVEC); assay: HUVEC colony survival with increasing doses of X-rays; assay type: cell-based; conditions: highest X-ray dose
Protocol: In another study of HUVEC radiation sensitivity, cells were treated with NM-3 (100 ng/ml) 1 hr prior to exposure of the cells to increasing doses of gamma irradiation (X-rays). The numbers of HUVEC colonies that formed following the different treatments were recorded and normalized to the number of colonies formed under control conditions (see FIG. 2). Increasing doses of X-rays in the absence of NM-3 decreased HUvEC colony survival to a minimal value of 10% survival at the highest dose tested. In the presence of NM-3, HUVEC colony survival decreased to 0.01% of the initial living cells at the highest X-ray dose.

[5] = test system: MM1.S human multiple myeloma cells; assay: Apoptosis by annexin V-FITC and PI staining; assay type: cell-based
Protocol: Apoptosis was determined by staining cells with annexin V-FITC and propidium iodide (PI). Cells were treated with DEX in the presence or absence of NM-3. NM-3 was added 2 hours before the addition of DEX. After 24 hours of DEX exposure, cells were washed twice with cold PBS, resuspended in binding buffer (10 mM HEPES/NaOH (pH 7.4), 140 mM NaCl, 2.5 mM CaCl2), and then stained with annexin V-FITC (Clontech Laboratories) and PI (Boehringer-Manheim). Apoptosis was analyzed by using a flow cytometer (EPICS XL-MCL, Coulter Corp). The cultured cells were also subjected to cell cycle analysis. Briefly, cells were washed twice with PBS and fixed with 70% ethanol. Cells were then washed with 0.5 ml PBS and 1.0 ml phosphate-citric acid buffer (0.2 M Na2HPO4 and 0.1 M citric acid (pH 7.8)), treated with 200 μg/ml RNase for 15 min at 37° C., and stained with 50 μg/ml PI for 30 min at room temperature in the dark. Cells were filtered through 35-μm diameter mesh to remove clumps. Nuclear staining was analyzed by a flow cytometer. Cells with fractional DNA content located on DNA frequency histograms to the left of the G1 peak (sub-G1 cells) were identified as apoptotic cells.

[6] = test system: Ehrlich carcinoma; assay: Ehrlich solid tumor growth; assay type: in vivo, ICR mice; conditions: for Inhibition (%): days 1~14; for Mean Tumor Weight (mg ± S.D.): days 1~14, measured day 15
Protocol: To determine the antitumor effect of NM-3 on growth of a solid tumor in vivo, 4×10^6 Ehrlich carcinoma cells per mouse were subcutaneously transplanted into ICR mice (female, 6 weeks old) in the inguinal area. NM-3 was continuously administered via the oral route for 14 days. Tumor weights were then measured on day 15 (Table 2). […] Thus, NM-3 treatment is associated with a significant reduction in the growth of solid tumors.

[7] = test system: Lewis Lung carcinoma (LLC) tumors; assay: Radiation sensitivity of Lewis Lung carcinoma in vivo; parameters: species or system C57BL/6 female mice
Protocol: To determine whether NM-3 treatment increases the radiation sensitivity of tumors in vivo, Lewis Lung carcinoma (LLC) tumors were established in C57BL/6 female mice (Frederick Cancer Research Institute) prior to NM-3 and radiation treatment. LLC cells (1×10^6 cells) were injected in the right hind limb of the mice and tumors were allowed to grow a volume of 250-350 mm^3. Tumor volumes were determined by direct measurements with calipers calculated by the formula: V=length×width×depth/2. Mice were then divided into groups and treated with NM-3 (100 mg/kg total) or PBS for two days before beginning radiation therapy. Animals then received NM-3 (25 mg/kg/day, i.p.) or PBS approximately four hours prior to radiation treatment. Tumors were irradiated using a GE Maxitron X-ray generator operating at 150 kV, 30 mA, using a 1 mm aluminum filter at a dose rate of 188 cGy/minute. Mice were shielded with lead except for the tumor-bearing area in the hind limb. Treatments and tumor measurements continued for a period of 17 days (see FIG. 4). […] Whereas control tumors reached 8 initial tumor volumes (Vo) after 8 days, X-ray treated tumors required 16 days to grow to this size. […] For comparison, data are plotted with two additional anti-angiogenic drugs, antiostatin and endostatin (see FIGS. 3B and 3C).

[8] = NM-3 1 mg/kg p.o. days 1-13, 15-72 alone
[9] = NM-3 5 mg/kg p.o. days 1-13, 15-72 alone
[10] = NM-3 1 mg/kg p.o. days 1-13, 15-41 alone
[11] = NM-3 5 mg/kg p.o. days 1-13, 15-41 alone
[12] = NM-3 combined with IR (4 doses of 5 Gy)

SMILES: COc1cc(O)c2c(=O)oc(C(C)C(=O)O)cc2c1 (centres unmarked) [NM-3, 2-(8-hydroxy-6-methoxy-1-oxo-1H-2-benzopyran-3-yl) propionic acid]
- Mean Survival Days (days ± S.D.) [1, 8]: 33.9 ± 13.6 days
- T/C (%) [1, 8]: 102.7%
- Mean Survival Days (days ± S.D.) [1, 9]: 23.5 ± 3.7 days
- T/C (%) [1, 9]: 71.2%
- Survival times versus control ([1]; NM-3 alone, 1 or 5 mg/kg): did not increase survival times
- Inhibition (%) [2, 10]: 10.2%
- Solid Weight mg ± S.D. [2, 10]: 11,093.0 ± 2040.6 mg
- Inhibition (%) [2, 11]: 12.6%
- Solid Weight mg ± S.D. [2, 11]: 10792.4 ± 2979.7 mg
- Tumor weight versus control ([2]; NM-3 alone): did not significantly reduce tumor weight
- Tumor volume ([3]; NM-3 alone, day 15): 6.74±0.62 times original volume
- Growth delay compared to IR alone group [3, 12]: 3 days
- Growth delay compared to the control group [3, 12]: 14 days
- Mean tumor volume compared with IR alone ([3]; NM-3 combined with IR (4 doses of 5 Gy), days 15, 17, 19, 21 and 23): significantly reduced mean tumor volume
- HUVEC colony survival ([4]; NM-3 100 ng/ml 1 hr prior to irradiation): 0.01%
- Increase of sensitivity to X-ray induced lethality ([4]; NM-3 100 ng/ml): approximately 1000 fold
- Population of cells positive for annexin V and PI (apoptotic cells) ([5]; NM-3 alone, 50-200 μg/ml): did not change the population of cells positive for annexin V and PI
- DEX-induced increase of apoptotic cells ([5]; pretreatment with NM-3, DEX 1 μM, 24 hours): further enhanced
- Inhibition (%) ([6]; 0.63 mg/kg p.o.): 33.1%
- Inhibition (%) ([6]; 1.25 mg/kg p.o.): 59.5%
- Mean Tumor Weight (mg ± S.D.) ([6]; 1.25 mg/kg p.o.): 497.7 ± 265.5 mg
- Inhibition (%) ([6]; 2.5 mg/kg p.o.): 57.7%
- Mean Tumor Weight (mg ± S.D.) ([6]; 2.5 mg/kg p.o.): 519.5 ± 319.3 mg
- Inhibition (%) ([6]; 5 mg/kg p.o.): 52.0%
- Mean Tumor Weight (mg ± S.D.) ([6]; 5 mg/kg p.o.): 589.7 ± 338.3 mg
- Tumor size versus control ([6]; 1.25 to 5 mg/kg p.o.): significantly reduced in size
- Further tumor growth ([7]; NM-3 25 mg/kg/day i.p. added to radiotherapy, 17 days): markedly reduced
- Tumor growth ([7]; NM-3 alone): did not inhibit tumor growth at all
- Radiation sensitization of tumors ([7]; combined with X-ray treatment): dramatically enhances the sensitivity
